Test results from patent EP0595557A1, “New substituted azetidinones as anti-inflammatory and antidegenerative agents” (MERCK & CO. INC., priority 1992, dated 1994).

Molecular target: T1, Human Polymorphonuclear Leukocyte Elastase (Homo sapiens, UniProt P08246)
T1 construct: Crude extract of human polymorphonuclear leukocytes (PMN) containing elastase activity; from tissue; host or cells: human polymorphonuclear leukocytes (crude extract)
T1 sequence (P08246 30-267): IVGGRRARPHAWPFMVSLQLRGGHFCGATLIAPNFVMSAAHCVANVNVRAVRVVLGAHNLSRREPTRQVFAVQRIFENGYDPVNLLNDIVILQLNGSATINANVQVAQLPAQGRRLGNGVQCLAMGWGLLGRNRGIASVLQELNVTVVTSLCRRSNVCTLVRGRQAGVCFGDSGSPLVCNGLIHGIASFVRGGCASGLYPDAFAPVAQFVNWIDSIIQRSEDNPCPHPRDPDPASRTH
Test: Enzyme assay for inhibition of human polymorphonuclear leukocyte elastase via hydrolysis of Boc-AAPAN or Boc-AAPVN
Format: biochemical
Conditions: pH 7.5, second order rate constant for inactivation of the enzyme, expressed to the nearest thousand, read-out: Kobs/[I]
Description: Enzyme Assays for the Inhibition of Human Polymorphonuclear Leukocyte Elastase Via Hydrolysis of N-t-Boc-alanyl-alanyl-prolylalanine-p-nitroanilide (Boc-AAPAN) or N-t-Boc-alanyl-prolylvaline-p-nitro-anilide (Boc-AAPVN) Reagent:
0.05M TES (N-tris[hydroxymethyl]methyl-2-mino-ethanesulfonic acid) Buffer, pH 7.5.
0.2 mM Boc-AAPAN or Boc-AAPVN.
To prepare substrate, the solid was first dissolved in 10.0 ml DMSO. Buffer at pH 7.5 was then added to a final volume of 100 ml.
Crude extract of human polymorphonuclear leukocytes (PMN) containing elastase activity.
Inhibitors (azetidinones) to be tested dissolved in DMSO just before use.
To 1.0 ml of 0.2 mM Boc-AAPAN in a cuvette, 0.01-0.1 ml of DMSO with or without inhibitor was added. After mixing, a measurement was taken at 410 mµ to detect any spontaneous hydrolysis due to presence of test compound. 0.05 Milliliters of PMN extract was then added and the ΔOD/min at 410 mµ was measured and recorded. Beckman model 35 spectrophotometer was used.
Results were expressed to the nearest thousand ^kobs/I which is the second order rate constant in per mole per second for inactivation of the enzyme.
The elastase activity in the crude PMN extract may vary from one preparation to another. A control of each new batch is run, and the volume added in the assay procedure is adjusted according to activity.

kinact/KI	Compound
968000 M⁻¹ s⁻¹	CCCC(NC(=O)N1C(=O)C(CC)(CC)C1Oc1ccc(C(=O)NCCN(C)C)cc1)c1ccc(C)cc1 (stereo not drawn) [Compound 73, 2-[4-[[[2-(dimethylamino)ethyl]amino]carbonyl]phenoxy]-3,3-diethyl-N-[1-(4-methylphenyl)butyl]-4-oxo-1-azetidinecarboxamide]
1.19e+06 M⁻¹ s⁻¹	CCC[C@@H](NC(=O)N1C(=O)C(CC)(CC)[C@@H]1Oc1ccc(C(=O)NCCN(CC)CC)cc1)c1ccc(C)cc1 [Compound 77]
1.84e+06 M⁻¹ s⁻¹	CCC[C@@H](NC(=O)N1C(=O)C(CC)(CC)[C@@H]1Oc1ccc(C(=O)NCCN2CCOCC2)cc1)c1ccc(C)cc1 [Compound 78]
2.12e+06 M⁻¹ s⁻¹	CCC[C@@H](NC(=O)N1C(=O)C(CC)(CC)[C@@H]1Oc1ccc(C(=O)N(C)CCN2CCOCC2)cc1)c1ccc(C)cc1 [Compound 79]
775000 M⁻¹ s⁻¹	CCC[C@@H](NC(=O)N1C(=O)C(CC)(CC)[C@@H]1Oc1ccc(C(=O)NS(=O)(=O)CCN2CCOCC2)cc1)c1ccc(C)cc1 [Compound 87]
941000 M⁻¹ s⁻¹	CCC[C@@H](NC(=O)N1C(=O)C(CC)(CC)[C@@H]1Oc1ccc(C(=O)NCCN2CCCCC2)cc1)c1ccc(C)cc1 [Compound 90]
892000 M⁻¹ s⁻¹	CCC[C@@H](NC(=O)N1C(=O)C(CC)(CC)[C@@H]1Oc1ccc(C(=O)N(C)CCN2CCCCC2)cc1)c1ccc(C)cc1 [Compound 91]
1.24e+06 M⁻¹ s⁻¹	CCC[C@@H](NC(=O)N1C(=O)C(CC)(CC)[C@@H]1Oc1ccc(C(=O)NCCN2CCCC2)cc1)c1ccc(C)cc1 [Compound 94]
1e+06 M⁻¹ s⁻¹	CCC[C@@H](NC(=O)N1C(=O)C(CC)(CC)[C@@H]1Oc1ccc(C(=O)N(C)CCN2CCCC2)cc1)c1ccc(C)cc1 [Compound 95]
1.4e+06 M⁻¹ s⁻¹	CCC[C@@H](NC(=O)N1C(=O)C(CC)(CC)[C@@H]1Oc1ccc(C(=O)NCCn2cncn2)cc1)c1ccc(C)cc1 [Compound 96]
1.07e+06 M⁻¹ s⁻¹	CCC[C@@H](NC(=O)N1C(=O)C(CC)(CC)[C@@H]1Oc1ccc(C(=O)NCCn2ccnc2)cc1)c1ccc(C)cc1 [Compound 97]
2.58e+06 M⁻¹ s⁻¹	CCC[C@@H](NC(=O)N1C(=O)C(CC)(CC)[C@@H]1Oc1ccc(C(=O)NCCN2CCC3(CCCCC3)CC2)cc1)c1ccc(C)cc1 [Compound 99]
2.01e+06 M⁻¹ s⁻¹	CCC[C@@H](NC(=O)N1C(=O)C(CC)(CC)[C@@H]1Oc1ccc(C(=O)NCCn2ncnn2)cc1)c1ccc(C)cc1 [Compound 100]
2.05e+06 M⁻¹ s⁻¹	CCC[C@@H](NC(=O)N1C(=O)C(CC)(CC)[C@@H]1Oc1ccc(C(=O)NCCn2cnnn2)cc1)c1ccc(C)cc1 [Compound 101]
1.28e+06 M⁻¹ s⁻¹	CCC[C@@H](NC(=O)N1C(=O)C(CC)(CC)[C@@H]1Oc1ccc(C(=O)NCCN2CCS(=O)(=O)CC2)cc1)c1ccc(C)cc1 [Compound 109]
1.6e+06 M⁻¹ s⁻¹	CCC[C@@H](NC(=O)N1C(=O)C(CC)(CC)[C@@H]1Oc1ccc(C(=O)N(C)CCN2CCS(=O)(=O)CC2)cc1)c1ccc(C)cc1 [Compound 112]

Second part, the compound before the results:

Compound	kinact/KI
CCC[C@@H](NC(=O)N1C(=O)C(CC)(CC)[C@@H]1Oc1ccc(CC(=O)N(C)CCN(C)Cc2ccccc2)cc1)c1ccc(C)cc1 [Compound 69]	2.79e+06 M⁻¹ s⁻¹
CCC[C@@H](NC(=O)N1C(=O)C(CC)(CC)[C@@H]1Oc1ccc(CC(=O)NOCc2ccccc2)cc1)c1ccc(C)cc1 [Compound 70]	2.37e+06 M⁻¹ s⁻¹
CCC[C@@H](NC(=O)N1C(=O)C(CC)(CC)[C@@H]1Oc1ccc(CC(=O)N(C)c2ccc(C(=O)O)cc2)cc1)c1ccc(C)cc1 [Compound 71]	1.51e+06 M⁻¹ s⁻¹
CCC[C@@H](NC(=O)N1C(=O)C(CC)(CC)[C@@H]1Oc1ccc(CC(=O)N(C)c2ccc(C(=O)NS(=O)(=O)c3ccccc3)cc2)cc1)c1ccc(C)cc1 [Compound 72]	3.28e+06 M⁻¹ s⁻¹
CCC[C@@H](NC(=O)N1C(=O)C(CC)(CC)[C@@H]1Oc1ccc(C(=O)NCC(=O)O)cc1)c1ccc(C)cc1 [Compound 74]	1.43e+06 M⁻¹ s⁻¹
CCC[C@@H](NC(=O)N1C(=O)C(CC)(CC)[C@@H]1Oc1ccc(C(=O)N(C)CCN(C)C)cc1)c1ccc(C)cc1 [Compound 75, [S-(R*,S*)]-2-[4-[[[2-(dimethylamino)ethyl]methylamino]carbonyl]phenoxy]-3,3-diethyl-N-[1-(4-methylphenyl]butyl]-4-oxo-1-azetidinecarboxamide]	1.92e+06 M⁻¹ s⁻¹
CCC[C@@H](NC(=O)N1C(=O)C(CC)(CC)[C@@H]1Oc1ccc(C(=O)N(CC)CCN(C)C)cc1)c1ccc(C)cc1 [Compound 76]	1.44e+06 M⁻¹ s⁻¹
CCC[C@@H](NC(=O)N1C(=O)C(CC)(CC)[C@@H]1Oc1ccc(C(=O)N(C)CCN(CCOC)CCOC)cc1)c1ccc(C)cc1 [Compound 80]	2.08e+06 M⁻¹ s⁻¹
CCC[C@@H](NC(=O)N1C(=O)C(CC)(CC)[C@@H]1Oc1ccc(C(=O)N(C)CCN(CC)CC)cc1)c1ccc(C)cc1 [Compound 81]	2.19e+06 M⁻¹ s⁻¹
CCC[C@@H](NC(=O)N1C(=O)C(CC)(CC)[C@@H]1Oc1ccc(C(=O)N(CCN(C)C)c2ccccc2)cc1)c1ccc(C)cc1 [Compound 82]	2.5e+06 M⁻¹ s⁻¹
CCC[C@@H](NC(=O)N1C(=O)C(CC)(CC)[C@@H]1Oc1ccc(C(=O)N(C)CCCN(C)C)cc1)c1ccc(C)cc1 [Compound 83]	1.8e+06 M⁻¹ s⁻¹
CCC[C@@H](NC(=O)N1C(=O)C(CC)(CC)[C@@H]1Oc1ccc(C(=O)NCCN(C(C)C)C(C)C)cc1)c1ccc(C)cc1 [Compound 84]	2.1e+06 M⁻¹ s⁻¹
CCC[C@@H](NC(=O)N1C(=O)C(CC)(CC)[C@@H]1Oc1ccc(C(=O)N(C)CC[N+](C)(C)[O-])cc1)c1ccc(C)cc1 [Compound 85]	1.59e+06 M⁻¹ s⁻¹
CCC[C@@H](NC(=O)N1C(=O)C(CC)(CC)[C@@H]1Oc1ccc(C(=O)N(C)CCN(C(C)C)C(C)C)cc1)c1ccc(C)cc1 [Compound 86]	2.45e+06 M⁻¹ s⁻¹
CCC[C@@H](NC(=O)N1C(=O)C(CC)(CC)[C@@H]1Oc1ccc(C(=O)NS(=O)(=O)CCN(C)C)cc1)c1ccc(C)cc1 [Compound 88]	788000 M⁻¹ s⁻¹
CCC[C@@H](NC(=O)N1C(=O)C(CC)(CC)[C@@H]1Oc1ccc(C(=O)NCCc2cnc[nH]2)cc1)c1ccc(C)cc1 [Compound 89]	2.09e+06 M⁻¹ s⁻¹

Compound	kinact/KI
CCC[C@@H](NC(=O)N1C(=O)C(CC)(CC)[C@@H]1Oc1ccc(C(=O)N(C)CCNC)cc1)c1ccc(C)cc1 [Compound 92]	1.45e+06 M⁻¹ s⁻¹
CCC[C@@H](NC(=O)N1C(=O)C(CC)(CC)[C@@H]1Oc1ccc(C(=O)NCCN2CC3CCC(CC3)C2)cc1)c1ccc(C)cc1 [Compound 98]	3.04e+06 M⁻¹ s⁻¹
CCCC(NC(=O)N1C(=O)C(CC)(CC)C1Oc1ccc(C(=O)NCC(=O)N2CCCC2C(=O)NCc2ccccc2)cc1)c1ccc(C)cc1 (stereo not drawn) [Compound 102]	2.75e+06 M⁻¹ s⁻¹
CCC[C@@H](NC(=O)N1C(=O)C(CC)(CC)[C@@H]1Oc1ccc(C(=O)N(C)CCN2CC3CCC(CC3)C2)cc1)c1ccc(C)cc1 [Compound 103]	3e+06 M⁻¹ s⁻¹
CCC[C@@H](NC(=O)N1C(=O)C(CC)(CC)[C@@H]1Oc1ccc(C(=O)N(C)CCc2c[nH]cn2)cc1)c1ccc(C)cc1 [Compound 104]	2.39e+06 M⁻¹ s⁻¹
CCC[C@@H](NC(=O)N1C(=O)C(CC)(CC)[C@@H]1Oc1ccc(C(=O)N(C)CCN(C)C(C)=O)cc1)c1ccc(C)cc1 [Compound 105]	2.4e+06 M⁻¹ s⁻¹
CCC[C@@H](NC(=O)N1C(=O)C(CC)(CC)[C@@H]1Oc1ccc(C(=O)N(C)CCN(C)C(=O)NC)cc1)c1ccc(C)cc1 [Compound 106]	2.49e+06 M⁻¹ s⁻¹
CCC[C@@H](NC(=O)N1C(=O)C(CC)(CC)[C@@H]1Oc1ccc(C(=O)N(C)CCN(C)S(C)(=O)=O)cc1)c1ccc(C)cc1 [Compound 107]	2.53e+06 M⁻¹ s⁻¹
CCC[C@@H](NC(=O)N1C(=O)C(CC)(CC)[C@@H]1Oc1ccc(C(=O)NCc2ccc(N(C)C)cc2)cc1)c1ccc(C)cc1 [Compound 110]	5.6e+06 M⁻¹ s⁻¹
CCC[C@@H](NC(=O)N1C(=O)C(CC)(CC)[C@@H]1Oc1ccc(C(=O)Nc2cccc(N(C)C)c2)cc1)c1ccc(C)cc1 [Compound 111]	2.29e+06 M⁻¹ s⁻¹
CCC[C@@H](NC(=O)N1C(=O)C(CC)(CC)[C@@H]1Oc1ccc(C(=O)Nc2ccc(N(C)C)cc2)cc1)c1ccc(C)cc1 [Compound 113]	2.59e+06 M⁻¹ s⁻¹
CCC[C@@H](NC(=O)N1C(=O)C(CC)(CC)[C@@H]1Oc1ccc(C(=O)NCCc2nccn2Cc2ccccc2)cc1)c1ccc(C)cc1 [Compound 114]	3.85e+06 M⁻¹ s⁻¹
CCC[C@@H](NC(=O)N1C(=O)C(CC)(CC)[C@@H]1Oc1ccc(C(=O)N(C)CCc2ccccn2)cc1)c1ccc(C)cc1 [Compound 115]	2.27e+06 M⁻¹ s⁻¹
CCC[C@@H](NC(=O)N1C(=O)C(CC)(CC)[C@@H]1Oc1ccc(C(=O)N(C)C2CN3CCC2CC3)cc1)c1ccc(C)cc1 (stereo partly drawn) [Compound 116]	3.48e+06 M⁻¹ s⁻¹
CCC[C@@H](NC(=O)N1C(=O)C(CC)(CC)[C@@H]1Oc1ccc(C(=O)NCCN2CCN(C(=O)OCc3ccccc3)CC2)cc1)c1ccc(C)cc1 [Compound 117]	6.23e+06 M⁻¹ s⁻¹

Same assay, conditions: second order rate constant for inactivation of the enzyme, expressed to the nearest thousand; pH 7.5

Compound	Kobs/[I]
CCC[C@@H](NC(=O)N1C(=O)C(CC)(CC)[C@@H]1Oc1ccc(C(=O)N(C)CCN2CC3CCC(CC3)C2)cc1)c1ccc(C)cc1 [Compound 108]	2,953,000 per mole per second
